# Read-outs that look alike come from different tables or passages of the source.
# Legend:
# MDA-MB-231 cells [1] = experiment: MTT antiproliferative assay, MDA-MB-231; type: cell-based, human; settings: exposure 72 h, read-out: 50% inhibitory concentration (IC50) MDA-MB-231
# Description: (§1) The in vitro antiproliferative activity of novel organic compounds HL^1–HL^4 and corresponding copper(II) complexes 1–4 was tested in the breast cancer cell line MDA-MB-231, hepatocellular carcinoma cell line LM3, and human embryonic kidney cell line HEK293 and then compared to those of the previously reported paullones HL^5–HL^7 and copper(II) complexes 5–7,[39],[44] as well as latonduines HL^8–HL^11 and copper(II) complexes 8–11.[34] […] The in vitro anticancer activity was determined by the colorimetric MTT assay with an exposure time of 72 h.
# (§2) Human breast adenocarcinoma MDA-MB-231 and human embryonic kidney HEK293 cells were obtained from ATCC. Hepatocellular carcinoma LM3 cells were a kind gift of Prof. Kan Man Hui (Duke-NUS Medical School). All cells were cultured in DMEM medium containing 10% FBS in tissue culture 75 cm^2 flasks (BDBiosciences, Singapore) at 37 °C in a humidified atmosphere of 95% air and 5% CO2. All stock solutions were prepared in DMSO. The amount of actual Cu concentration in stock solutions was verified by ICP-OES.
# (§3) The cytotoxicity of the compounds was determined by the colorimetric MTT assay. The cells were harvested from culture flasks by trypsinization and seeded into CELLSTAR 96-well microculture plates at the seeding density of 6000 cells per well (6 × 10^4 cells/mL). […] Optical densities were measured at 570 nm using the BioTekH1 Synergy microplate reader. […]
# LM3 cells [2] = experiment: MTT antiproliferative assay, LM3; type: cell-based; settings: exposure 72 h, read-out: 50% inhibitory concentration (IC50) LM3
# Description: as §1, §2, §3
# [3] = Solution stability (UV-vis, ESI-MS, 1H NMR); type: physicochemical; settings: aqueous solution containing 1% DMSO, 72 h
# Description: First, UV–vis kinetic studies were performed with the ligands HL^2 and HL^4 (Figure S30) and the copper(II) complexes 1–4 in aqueous solutions containing 1% DMSO (Figures S31 and 32). Additionally, the stability of the copper(II) complex 4 was also measured in phosphate-buffered saline (PBS) (pH ∼ 7.4) containing 3% DMSO over 24 h. […] Additional peaks which could be assigned to the dissociated ligand or any its fragments due to a hypothetical ligand degradation have not been registered. In addition to UV–vis data, the stability and purity of complex 4 were tested by analytical HPLC-HR ESI MS using methanol or acetonitrile with 0.1% formic acid as the eluent over 10 min. A single peak at around 1 min corresponding to [Cu^II(L^4)]^+ (found m/z = 506.9939 (Figure S23), calcd m/z for C23H17BrCuN5 507.0063) was registered in agreement with other experiments. In addition, the stability of HL^4 in 1:1 DMSO-d6/D2O at 25 °C was monitored by ^1H NMR spectroscopy. […] In addition, solution stability of the lead complex 4 was studied in ethanol-cell culture medium (1:1 v/v) by monitoring the electronic absorption spectra in the visible region within a time period of 8 h (Figure S34, Supporting Information).
# HEK293 cells [4] = experiment: MTT assay, noncancerous HEK293; type: cell-based, human; settings: exposure 72 h, read-out: 50% inhibitory concentration (IC50) HEK293
# Description: as §1, §2, §3
# HEK293 cells [5] = test system: HEK293 cells; parameters: method as in doi:10.1021/acs.organomet.9b00229; settings: MTT assay, exposure 72 h; read-out: 50% inhibitory concentration (IC50) HEK293; cited from earlier work
# LM3 cells [6] = test system: LM3 cells; parameters: method as in PMID 34995063; settings: MTT assay, exposure 72 h; read-out: 50% inhibitory concentration (IC50) LM3; cited from earlier work
# MDA-MB-231 cells [7] = test system: MDA-MB-231 cells; parameters: method as in PMID 34995063; settings: MTT assay, exposure 72 h; read-out: 50% inhibitory concentration (IC50) MDA-MB-231; cited from earlier work
SMILES,IC50 (MDA-MB-231 cells [1]) [nM],IC50 (LM3 cells [2]) [nM],stability by UV–vis absorption spectra [3],IC50 (HEK293 cells [4]) [nM],IC50 (HEK293 cells [5]) [nM],IC50 (LM3 cells [6]) [nM],IC50 (MDA-MB-231 cells [7]) [nM]
C(=N\N=C1/NCc2ccccc2-c2[nH]c3ccccc3c21)/c1ccccn1 [HL^1],1500 ± 100,1400 ± 200,no changes in the UV–vis absorption spectra over 72 h,2000 ± 100,–,–,–
N.N.[Cl][Pt][Cl] [cisplatin],–,–,–,–,3400 ± 1100,10000 ± 3000,21000 ± 5000

# Reference: PMC9490829, “Elucidation of Structure–Activity Relationships in Indolobenzazepine-Derived Ligands and Their Copper(II) Complexes: the Role of Key Structural Components and Insight into the Mechanism of Action” (Inorganic Chemistry, 2022)
